The record followed here is patent publication US4649137A, “2-acylaminomethyl-1,4-benzodiazepine compounds, the preparation thereof, and pharmaceutical compositions containing them” (Kali-Chemie Pharma GmbH, priority 1981, dated 1987).

One data set relates to rat. The experiment in a line: Arthritis pain test on the rat (inhibition of the arthritis pain). Format: in vivo, rat (male, strain OFA). The settings on record: p.o., 3 hours after oral dosage. The method, then:
ARTHRITIS PAIN TEST ON THE RAT
Male rats of the strain OFA with a weight of 160-180 g. are anaesthetised by administration of 20 mg./kg. i.p. of phenobarbital sodium. 0.1 ml. of a suspension of Mycobacterium Smegmae (S1043) in paraffin oil (0.6 mg. of Mycobact./0.1 ml. of oil) are injected intracutaneously into the left rear paw. 14 days later, when a marked secondary arthritis has developed, particularly in the right rear paw, the effects of the test substances are investigated. 30 minutes before administration of the test substances, a control measurement in undertaken in which the ankle joint of the right rear paw is flexed three times and the number of sounds given out is counted. […] 3 hours after oral dosage of the test substance, the flexion procedure is repeated. Animals which either give out sound only once or not at all are regarded as being protected against pain. Between 9 and 20 rats are used per dose and the ED50 (95% confidence range) is determined by the method of Litchfield and Wilcoxon) (1949). The ED50 is designated at that dose which produces protection in 50% of the animals treated.

Data set [1] concerns mouse. The experiment in a line: Tail flick ray test on the mouse. Format: in vivo. The note with it: sc, 0.5 h, s.c., 30 minutes after administration. Here is the method:
TAIL FLICK RAY TEST ON THE MOUSE
The method is based on the procedure described by D'Amour and Smith (1941). However, non-fasting male and female mice having body weights of 16-25 g. are used instead of rats. 30 minutes before treatment with the test substance, each mouse is placed alone in a cylindrical vessel such that it cannot turn round and move forward. Its tail, lying in a narrow groove, projects out of the vessel. A particular point on the tail of each animal (at about 35 mm. from the root of the tail) is subjected to the radiant heat from a lamp of known intensity and temperature which is situated directly beneath the tail. The time in seconds required by the mouse to flick the tail out of the ray of light is determined twice, once 30 and once 15 minutes before subcutaneous administration of the test substance (10 mg./kg.). The mice for which the reaction times deviate by more than 25% are eliminated. The reaction times are again measured 15 and 30 minutes after treatment and an increase in the reaction times of more than 75% of the average values before treatment of the same mouse is regarded as an analgesic effect. The ED50 (95% confidence range) of each test substance 30 minutes after administration is regarded as that dose which increases the reaction time before treatment by more than 75% in 50% of the animals. The calculation is carried out in accordance with the method of Litchfield and Wilcoxon (1949).

Data set [2] relates to mouse. In words: Determination of the minimum toxic dose. The settings on record: p.o.; maximum dose 300 mg/kg; symptoms recorded for 24 hours. The data set is classed as in vivo, mouse (male). Here is the method:
DETERMINATION OF THE MINIMUM TOXIC DOSE
Maximum doses of 300 mg/kg. of the test substance are administered orally to male mice of 20-25 g. weight. The animals are observed carefully for toxicity symptoms for 3 hours. In addition, all symptoms and cases of death are recorded for a period of 24 hours after administration. Accompanying symptoms are also observed and recorded. If death- or toxic symptoms are observed, decreasing doses are administered to additional mice until no more toxic symptoms occur. The lowest dose which induces toxic symptoms is reported as the minimum toxic dose.

Each structure is given as a SMILES string.

On to `CN1c2ccccc2C(c2ccsc2)=NCC1CNC(=O)c1ccoc1` (stereo not shown) [Example 1, 1-Methyl-2-[(furan-3-carbonyl)-aminomethyl]-5-(3'-thienyl)-1H-2,3-dihydro-1,4-benzodiazepine], for which the ED50 (usually the dose that gives a 50% effect, or the effect in half of the subjects) in the data set with rat was 32 to 56 mg/kg; in the data set on mouse [1], 1 mg/kg. The “Minimum toxic dose in the mouse” value in the data set with mouse [2] turned out to be 200 mg/kg.

Take `CN1c2ccccc2C(c2ccsc2)=NCC1CNC(=O)c1ccccc1` (stereo not shown) [Example 11]: the ED50 in the data set with rat is approximately 2 mg/kg; in the data set on mouse [1] it was 2.8 mg/kg. Also, the “Minimum toxic dose in the mouse” value with mouse [2] worked out at 300 mg/kg.

In the case of `Cc1ccsc1C1=NCC(CNC(=O)c2ccoc2)N(C)c2ccccc21` (stereo not shown) [Example 87], the figures for the ED50 in the data set with rat and with mouse [1] were 18 to 32 mg/kg and 2.6 mg/kg, respectively.

With `Cc1ccsc1C1=NCC(CNC(=O)c2ccccc2)N(C)c2ccccc21` (stereo not shown) [Example 88], the ED50 with rat is 18 to 32 mg/kg; in the data set with mouse [1], 8.3 mg/kg.

In the case of `CN1c2ccccc2C(c2ccsc2)=NCC1CNC(=O)c1ccc(C(F)(F)F)cc1` (stereo not shown) [Example 6, 1-Methyl-2-[(4'-trifluoromethylbenzoyl)-aminomethyl]-5-(3'-thienyl)-1H-2,3-dihydro-1,4-benzodiazepine], the ED50 in the data set on rat was found to be 2 mg/kg. Moreover, the “Minimum toxic dose in the mouse” value with mouse [2] is 300 mg/kg.

`CN1c2ccccc2C(c2ccc(Cl)s2)=NCC1CNC(=O)c1ccc(C#N)cc1` (stereo not shown) [Example 84] registered an ED50 in the data set on rat of 18 mg/kg. Further, the “Minimum toxic dose in the mouse” value in the data set with mouse [2] was more than 300 mg/kg.

For `COc1ccc2c(c1)N(C)C(CNC(=O)c1ccc(C(F)(F)F)cc1)CN=C2c1ccsc1` (stereo not shown) [Example 12], in the data set with rat, the ED50 was 32 mg/kg. In addition, the “Minimum toxic dose in the mouse” value in the data set on mouse [2] is more than 300 mg/kg.

Regarding `Cc1ccsc1C1=NCC(CNC(=O)c2ccc(C#N)cc2)N(C)c2ccccc21` (stereo not shown) [Example 89], in the data set with rat, the ED50 was 10 mg/kg.

`COc1ccc2c(c1)N(C)C(CNC(=O)c1ccccc1)CN=C2c1ccsc1` (stereo not shown) [Example 5, 8-Methoxy-1-methyl-2-benzoylaminomethyl-5-(3'-thienyl)-1H-2,3-dihydro-1,4-benzodiazepine]: the 50% effective dose (ED50) with rat is approximately 10 mg/kg; in the data set on mouse [1], 2.7 mg/kg. Further, in the data set with mouse [2], the “Minimum toxic dose in the mouse” value is 300 mg/kg.

Consider `COc1ccc2c(c1)N(C)C(CNC(=O)c1ccsc1)CN=C2c1ccsc1` (stereo not shown) [Example 13], for which the ED50 in the data set on rat was 32 to 56 mg/kg; with mouse [1] it was 10 mg/kg. For the same compound, the “Minimum toxic dose in the mouse” value in the data set on mouse [2] stood at 200 mg/kg.

With `CN1c2ccccc2C(c2ccsc2)=NCC1CNC(=O)c1ccc(C#N)cc1` (stereo not shown) [Example 7, 1-Methyl-2-[(4-cyanobenzoyl)-aminomethyl]-5-(3'-thienyl)-1H-2,3-dihydro-1,4-benzodiazepine], in the data set with rat, the 50% effective dose (ED50) worked out at 8.5 mg/kg. Besides, the “Minimum toxic dose in the mouse” value with mouse [2] is more than 300 mg/kg.

On to `CN1c2cc3c(cc2C(c2ccsc2)=NCC1CNC(=O)c1cccs1)OCO3` (stereo not shown) [Example 14], for which the figures for the median effective dose (ED50) with rat and in the data set on mouse [1] were 32 to 56 mg/kg and 5 mg/kg, respectively. For the same compound, the “Minimum toxic dose in the mouse” value with mouse [2] was determined as 100 mg/kg.
